According to PubChem BioAssay AID2060883 (Molecular Pharmacology Branch, DTP, NCI, 2025):
Where “and” joins values, the source holds several entries; their conditions need not be identical. Equal values may be shown once.

Test system: 843782-103-R-J1-PDC complex spheroid viability
Experiment: Anticancer human tumor 843782-103-R-J1-PDC patient-derived lung adenocarcinoma cell line growth inhibition [RAS]
Settings: for viability, T/C: stronger effect = lower value
Source text: RAS pathway inhibitors in Combinations in Complex Spheroids
A high-throughput screen of multi-cell type tumor spheroids was designed to identify active combinations of RAS pathway inhibitors and targeted small molecules. Complex spheroids include a stromal component modeled by human endothelial cells (HUVEC) and fibroblasts modeled by human mesenchymal stem cells (MSCs). The concentration ranges selected for each drug and investigational agent were based upon clinically achievable concentrations if the clinical Cmax of the agent was known.
Compounds. The drugs and investigational agents: abemaciclib (NSC768073), cobimetinib (NSC768068), divarasib (GDC6063, NSC841802), docetaxel (NSC628503), GDC-1971 (RLY-1971, NSC841576), gemcitabine (NSC613327), inavolisib (NSC800729), ipatasertib (NSC767898), KB-0742 (NSC834161), MRTX-1133 (NSC836407), osimertinib (NSC779217), RMC-4630 (NSC839698), RMC-6236 (NSC851965), RMC-6291 (NSC852671), Ro-3306 (NSC812927), sapanisertib (NSC764658), SN-38 (NSC673596), staurosporine (NSC755774), SY5609 (NSC837396), and tovorafenib (DAY101, NSC766906), were obtained from the National Cancer Institute (NCI) Developmental Therapeutics Program Chemical Repository. The FDA-approved anticancer drug set is available from the NCI Developmental Therapeutics Program. […] The stock solutions were prepared in dimethyl sulfoxide (DMSO, Sigma-Aldrich, St. Louis, MO, cat. D2650) at 800-fold the tested concentration and stored at -70 degrees C prior to their use. All drugs and investigational agents were tested over a range starting from a high concentration at or near the clinical Cmax and decreasing in half-log increments. If the clinical Cmax for an agent had not been determined, the highest concentration tested was 10 microM.
Cell Culture. All cells were maintained in an incubator at 37 degrees C and 5% CO2 with 95% humidity. The PDC lines were cultured according to standard operating procedures established by the NCI PDMR. All PDCs were thawed and cultured in Matrigel-coated flasks prepared with a working solution of 1X Ham's F-12 nutrient mix, without supplementation (Invitrogen, Waltham, MA, cat. 11765054), 100 U/mL penicillin-streptomycin (Invitrogen, cat. 15140122), and 2.5% Matrigel (Corning Inc., Corning, NY, cat. 354248) for the first three passages. The 362531-283-R-J2-PDC and 782815-120-R-J1-PDC lines were cultured in 6C/Colon 1B media, which includes advanced DMEM/F-12 (Thermo Fisher Scientific, cat. 12634028), 10 mM HEPES (Thermo Fisher Scientific, cat. 15630080), 1X GlutaMAX supplement (Thermo Fisher Scientific, cat. 35050061), 0.1 mg/mL primocin (InvivoGen, San Diego, CA, cat. ant-pm-2), 10% defined fetal bovine serum, heat inactivated (HyClone Laboratories Inc., Logan, UT, cat. SH30070.03HI), 50% L-WRN conditioned media (ATCC, cat. CRL-3276), 1.25 mM N-Acetyl-L-cysteine (Sigma-Aldrich, cat. A9165), 10 mM nicotinamide (Sigma-Aldrich, cat. N0636), 1X B-27 supplement (Thermo Fisher Scientific, cat. 17504044), 1X N-2 supplement (Thermo Fisher Scientific, cat. 17502048), 50 ng/mL human EGF (Thermo Fisher Scientific, cat. PHG0311), and 10 microM Y-27632 dihydrochloride (Tocris Bioscience, cat. 1254). The K12877-001-R-J1-PDC line was cultured in 6I media, which includes all 6C/Colon 1B media plus 10 ng/mL human FGF-10 (PeproTech, cat. 100-26), 1 ng/mL human FGF-2 (PeproTech, cat. 100-18B), 1 µM prostaglandin E2 (Tocris Bioscience, cat. 2296), […] hydrocortisone (Sigma-Aldrich, cat. H4001), and […] bovine insulin (Sigma-Aldrich, cat. I6634). The K86415-001-R-J1-PDC line was cultured in 6D media, which includes all 6C/Colon 1B media components minus the L-WRN conditioned media. The 485176-168-R4-J1-PDC was cultured in PANC media, which includes all 6C/Colon 1B media plus 100 ng/mL human FGF-10 (PeproTech, cat. 100-26), 500 nM SB-431542 (Selleckchem, cat. S1067), and 10 nM gastrin (Tocris Bioscience, cat. 3006). […]

[1] = curve of first compound, second compound 0.0316 µM
[2] = curve of first compound, second compound 0.1 µM
[3] = curve of first compound, second compound 0.316 µM
[4] = curve of first compound, second compound 1 µM
[5] = second compound 0.0316 µM, first compound 0.0316 µM
[6] = second compound 0.0316 µM, first compound 0.1 µM
[7] = second compound 0.0316 µM, first compound 0.316 µM
[8] = second compound 0.0316 µM, first compound 1 µM
[9] = second compound 0.0316 µM, first compound 3.16 µM
[10] = second compound 0.0316 µM, first compound 10 µM
[11] = second compound 0.1 µM, first compound 0.0316 µM
[12] = second compound 0.1 µM, first compound 0.1 µM
[13] = second compound 0.1 µM, first compound 0.316 µM
[14] = second compound 0.1 µM, first compound 1 µM
[15] = second compound 0.1 µM, first compound 3.16 µM
[16] = second compound 0.1 µM, first compound 10 µM
[17] = second compound 0.316 µM, first compound 0.0316 µM
[18] = second compound 0.316 µM, first compound 0.1 µM
[19] = second compound 0.316 µM, first compound 0.316 µM
[20] = second compound 0.316 µM, first compound 1 µM
[21] = second compound 0.316 µM, first compound 3.16 µM
[22] = second compound 0.316 µM, first compound 10 µM
[23] = second compound 1 µM, first compound 0.0316 µM
[24] = second compound 1 µM, first compound 0.1 µM
[25] = second compound 1 µM, first compound 0.316 µM
[26] = second compound 1 µM, first compound 1 µM
[27] = second compound 1 µM, first compound 3.16 µM
[28] = second compound 1 µM, first compound 10 µM
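Also: viability read after seven days of compound exposure.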

Work on `CC(C)NCC(C(=O)N1CCN(c2ncnc3c2C(C)CC3O)CC1)c1ccc(Cl)cc1` (stereo unspecified) + C#Cc1c(F)ccc2cc(O)cc(-c3ncc4c(N5CC6CCC(C5)N6)nc(OCC56CCCN5CC(F)C6)nc4c3F)c12 yielded an IC50 [1] of 1870 nM, an IC50 [2] of 1720 nM and an IC50 [3] of 1560 nM. It also gave an IC50 [4] of 930 nM, an IC50 (curve of first compound, second compound 3.16 µM) of 390 nM and an IC50 (curve of first compound, second compound 10 µM) of 160 nM. It also gave a viability, T/C [5] of 99.3%, a viability, T/C [6] of 99.2% and a viability, T/C [7] of 90.4%. It also gave a viability, T/C [8] of 71.6%, a viability, T/C [9] of 32.1% and a viability, T/C [10] of 13.8%. The viability, T/C [11] was 106%, the viability, T/C [12] was 99.1% and the viability, T/C [13] was 94.3%. For the same molecule, the viability, T/C [14] was 69.9%, the viability, T/C [15] was 28% and the viability, T/C [16] was 13.5%. It also gave a viability, T/C [17] of 103%, a viability, T/C [18] of 95.1% and a viability, T/C [19] of 86.9%. For the same molecule, the viability, T/C [20] was 69.2%, the viability, T/C [21] was 21.4% and the viability, T/C [22] was 13.7%. It also gave a viability, T/C [23] of 100%, a viability, T/C [24] of 94.6% and a viability, T/C [25] of 79.2%. It also gave a viability, T/C [26] of 48%, a viability, T/C [27] of 21.2% and a viability, T/C [28] of 10.3%. It also gave a viability, T/C (second compound 3.16 µM, first compound 0.0316 µM) of 84.6%, a viability, T/C (second compound 3.16 µM, first compound 0.1 µM) of 75% and a viability, T/C (second compound 3.16 µM, first compound 0.316 µM) of 53.3%. For the same molecule, the viability, T/C (second compound 3.16 µM, first compound 1 µM) was 31.8%, the viability, T/C (second compound 3.16 µM, first compound 3.16 µM) was 13% and the viability, T/C (second compound 3.16 µM, first compound 10 µM) was 7.27%. The viability, T/C (second compound 10 µM, first compound 0.0316 µM) was 62.8%, the viability, T/C (second compound 10 µM, first compound 0.1 µM) was 55% and the viability, T/C (second compound 10 µM, first compound 0.316 µM) was 42.3%. The viability, T/C (second compound 10 µM, first compound 1 µM) was 20%, the viability, T/C (second compound 10 µM, first compound 3.16 µM) was 10.1% and the viability, T/C (second compound 10 µM, first compound 10 µM) was 4.52%.

`C[C@@H](NC(=O)c1ncnc(N)c1Cl)c1ncc(C(=O)Nc2cc(C(F)(F)F)c(Cl)cn2)s1` was tested, and the viability, T/C (compound 0.0316 µM) was 103% and 104% and 109% (2×), the viability, T/C (compound 0.1 µM) was 105% [middle of 4 runs] and the viability, T/C (compound 0.316 µM) was 99.7% [middle of 4 runs]. The viability, T/C (compound 1 µM) was 104% (2×) and 113% and 98%, the viability, T/C (compound 3.16 µM) was 109% [middle of 4 runs] and the viability, T/C (compound 10 µM) was 103% [middle of 4 runs]. For the same molecule, the IC50 (curve of compound) was > 10000 nM.

For `NC1c2ccccc2OC12CCN(c1cnc3c(N4CCCc5ncccc54)n[nH]c3n1)CC2` (stereo unspecified) + C=CC(=O)N1CCN(c2nc(OCC3CCCN3C)nc3c(F)c(-c4nc(N)cc(C)c4C(F)(F)F)c(Cl)cc23)C(C)C1, the IC50 (curve of first compound, second compound 0.00316 µM) was 49.3 nM, the IC50 (curve of first compound, second compound 0.01 µM) was < 31.6 nM and the IC50 [1] was < 31.6 nM. For the same molecule, the IC50 [2] was 39.9 nM, the IC50 [3] was 44.1 nM and the IC50 [4] was 37.2 nM. It also gave a viability, T/C (second compound 0.00316 µM, first compound 0.0316 µM) of 58.4%, a viability, T/C (second compound 0.00316 µM, first compound 0.1 µM) of 35.8% and a viability, T/C (second compound 0.00316 µM, first compound 0.316 µM) of 30.5%. The viability, T/C (second compound 0.00316 µM, first compound 1 µM) was 23.7%, the viability, T/C (second compound 0.00316 µM, first compound 3.16 µM) was 30.8% and the viability, T/C (second compound 0.00316 µM, first compound 10 µM) was 16.8%. For the same molecule, the viability, T/C (second compound 0.01 µM, first compound 0.0316 µM) was 49.1%, the viability, T/C (second compound 0.01 µM, first compound 0.1 µM) was 35.5% and the viability, T/C (second compound 0.01 µM, first compound 0.316 µM) was 28.5%. For the same molecule, the viability, T/C (second compound 0.01 µM, first compound 1 µM) was 22.8%, the viability, T/C (second compound 0.01 µM, first compound 3.16 µM) was 20.3% and the viability, T/C (second compound 0.01 µM, first compound 10 µM) was 20.2%. For the same molecule, the viability, T/C [5] was 44.9%, the viability, T/C [6] was 34.4% and the viability, T/C [7] was 30.4%. The viability, T/C [8] was 25.6%, the viability, T/C [9] was 24.7% and the viability, T/C [10] was 21.3%. It also gave a viability, T/C [11] of 55%, a viability, T/C [12] of 34% and a viability, T/C [13] of 28.2%. It also gave a viability, T/C [14] of 26.2%, a viability, T/C [15] of 22.9% and a viability, T/C [16] of 15%. It also gave a viability, T/C [17] of 54.4%, a viability, T/C [18] of 39.8% and a viability, T/C [19] of 29.7%. For the same molecule, the viability, T/C [20] was 23.1%, the viability, T/C [21] was 20.9% and the viability, T/C [22] was 22.1%. For the same molecule, the viability, T/C [23] was 52.1%, the viability, T/C [24] was 38.3% and the viability, T/C [25] was 25.2%. For the same molecule, the viability, T/C [26] was 25.4%, the viability, T/C [27] was 25.3% and the viability, T/C [28] was 18%.
